# Reference: US3957779A, “Benzo-1,2,4-triazines” (Bayer Aktiengesellschaft, priority 1972, dated 1976)
# Experiments:
# Assay type in all cases: cell-based
# [1] = tested on: Proteus vulgaris 1017; assay: MIC, plate test (Table 1); settings: 37°C, 24 hours, read-out: Minimum inhibitory concentration (MIC)
# Experimental: (§1) The minimum inhibitory concentration (MIC) was determined in the plate test on a complete nutrient base of the following composition: 10 g of proteose-peptone, 10 g of veal infusion, 2 g of dextrose, 3 g of sodium chloride, 2 g of disodium phosphate, 1 g of sodium acetate, 0.01 g of adenine sulphate, 0.01 g of guanine hydrochloride, 0.01 g of uracil, 0.01 g. of xantin, 12 g of agar-agar and 1 liter of water.
# (§2) The incubation temperature was 37°C and the incubation time was 24 hours.
# [2] = tested on: Escherichia coli A261; assay: MIC, plate test (Table 1); settings: 37°C, 24 hours, read-out: Minimum inhibitory concentration (MIC)
# Experimental: as §1, §2
# [3] = tested on: Staphylococcus aureus 133; assay: MIC, plate test (Table 1); settings: 37°C, 24 hours, read-out: Minimum inhibitory concentration (MIC)
# Experimental: as §1, §2
# [4] = tested on: Escherichia coli C165; assay: MIC, plate test (Table 1); settings: 37°C, 24 hours, read-out: Minimum inhibitory concentration (MIC)
# Experimental: as §1, §2
# [5] = tested on: Streptococcus pyogenes; assay: MIC, plate test (Table 1); settings: with serum, 37°C, 24 hours, read-out: Minimum inhibitory concentration (MIC)
# Experimental: as §1, §2
# [6] = tested on: Klebsiella 63; assay: MIC, plate test (Table 1); settings: 37°C, 24 hours, read-out: Minimum inhibitory concentration (MIC)
# Experimental: as §1, §2
# [7] = tested on: Klebsiella 8085; assay: MIC, plate test (Table 1); settings: 37°C, 24 hours, read-out: Minimum inhibitory concentration (MIC)
# Experimental: as §1, §2
# [8] = tested on: Salmonella species; assay: MIC, plate test (Table 1); settings: 37°C, 24 hours, read-out: Minimum inhibitory concentration (MIC)
# Experimental: as §1, §2
# [9] = tested on: Pseudomonas aeruginosa B; assay: MIC, plate test (Table 1); settings: 37°C, 24 hours, read-out: Minimum inhibitory concentration (MIC)
# Experimental: as §1, §2
# [10] = tested on: Pseudomonas aeruginosa w; assay: MIC, plate test (Table 1); settings: 37°C, 24 hours, read-out: Minimum inhibitory concentration (MIC)
# Experimental: as §1, §2
# [11] = tested on: Mycoplasma granularum; assay: MIC, series dilution test, PPLO-medium (Table 1); settings: Acholeplasma granularum, 37°C, 18, 24 and 48 hours, read-out: Minimum inhibitory concentration (MIC)
# Experimental: (§3) The mycoplasmae were tested in the series dilution test (PPLO-medium) at 37°C, with observations after 18, 24 and 48 hours.
# [12] = tested on: Mycoplasma bovirhinis; assay: MIC, series dilution test, PPLO-medium (Table 1); settings: 37°C, 18, 24 and 48 hours, read-out: Minimum inhibitory concentration (MIC)
# Experimental: as §3
# [13] = tested on: Mycoplasma gallisepticum; assay: MIC, series dilution test, PPLO-medium (Table 1); settings: Mycoplasmoides gallisepticum, 37°C, 18, 24 and 48 hours, read-out: Minimum inhibitory concentration (MIC)
# Experimental: as §3
# [14] = tested on: Mycobacterium tuberculosis; assay: MIC, series dilution test, Jenssen egg medium; settings: 37°C, read-out: minimum inhibitory concentration
# Experimental: The compounds of Examples 12 and 13 show minimum inhibitory concentrations of 32 γ/ml of nutrient medium in the series dilution test, Jenssen egg medium, 37°C, against Mycobacterium tuberculosis.
# [15] = tested on: Corynebacterium pyogenes M; assay: Turbidity test in Mueller-Hinton nutrient solution; settings: 100 γ/ml, 24 hours, 37°C
# [16] = tested on: Aeromonas hydrophila species; assay: Turbidity test in Mueller-Hinton nutrient solution; settings: 100 γ/ml, 24 hours, 37°C
# [17] = tested on: Clostridium botulinium
# [18] = tested on: Bordetella bronchiseptica; assay: Turbidity test in Mueller-Hinton nutrient solution; settings: 100 γ/ml, 24 hours, 37°C
# [19] = tested on: Pasteurella pseudotuberculosis; settings: 100 γ/ml, 24 hours, 37°C
# [20] = tested on: Proteus vulgaris 1017; assay: Turbidity test in Mueller-Hinton nutrient solution; settings: 100 γ/ml, 24 hours, 37°C
# [21] = tested on: Klebsiella K 10; assay: Turbidity test in Mueller-Hinton nutrient solution; settings: 100 γ/ml, 24 hours, 37°C
# [22] = tested on: Lactobacillus species; assay: Turbidity test in Mueller-Hinton nutrient solution; settings: 100 γ/ml, 24 hours, 37°C
# [23] = tested on: Pseudomonas aeruginosa w; assay: Turbidity test in Mueller-Hinton nutrient solution; settings: 100 γ/ml, 24 hours, 37°C
# [24] = tested on: Diplococcus pneumoniae species; assay: Turbidity test in Mueller-Hinton nutrient solution; settings: 100 γ/ml, 24 hours, 37°C
# [25] = tested on: Serratia species; assay: Turbidity test in Mueller-Hinton nutrient solution; settings: 100 γ/ml, 24 hours, 37°C
# [26] = tested on: Enterobacter species; assay: Turbidity test in Mueller-Hinton nutrient solution; settings: 100 γ/ml, 24 hours, 37°C
# [27] = tested on: Enterococcus species; assay: Turbidity test in Mueller-Hinton nutrient solution; settings: 100 γ/ml, 24 hours, 37°C
# [28] = tested on: Brucella species; settings: 100 γ/ml, 24 hours, 37°C
# [29] = tested on: Proteus indole-negative, species; assay: Turbidity test in Mueller-Hinton nutrient solution; settings: 100 γ/ml, 24 hours, 37°C
# [30] = tested on: Neisseria catarrhalis species; assay: Turbidity test in Mueller-Hinton nutrient solution; settings: 100 γ/ml, 24 hours, 37°C
# [31] = tested on: Streptococcus pyogenes W; assay: Turbidity test in Mueller-Hinton nutrient solution; settings: 100 γ/ml, 24 hours, 37°C
# [32] = tested on: Haemophilus influenzae 281; assay: Turbidity test in Mueller-Hinton nutrient solution; settings: 100 γ/ml, 24 hours, 37°C
# [33] = tested on: Klebsiella K 63; assay: Turbidity test in Mueller-Hinton nutrient solution; settings: 100 γ/ml, 24 hours, 37°C
# [34] = tested on: Staphylococcus aureus 133; assay: Turbidity test in Mueller-Hinton nutrient solution; settings: 100 γ/ml, 24 hours, 37°C
# [35] = tested on: Clostridium tetani; settings: 100 γ/ml, 24 hours, 37°C
# [36] = tested on: Pseudomonas aeruginosa B; assay: Turbidity test in Mueller-Hinton nutrient solution; settings: 100 γ/ml, 24 hours, 37°C
# [37] = tested on: Corynebacterium diphtheriae gravis; assay: Turbidity test in Mueller-Hinton nutrient solution; settings: 100 γ/ml, 24 hours, 37°C
# [38] = tested on: Bacteroides species; assay: Turbidity test in Mueller-Hinton nutrient solution; settings: 100 γ/ml, 24 hours, 37°C
# [39] = tested on: Proteus indole-positive, species; assay: Turbidity test in Mueller-Hinton nutrient solution; settings: 100 γ/ml, 24 hours, 37°C
# [40] = tested on: Escherichia coli C 165; assay: Turbidity test in Mueller-Hinton nutrient solution; settings: 100 γ/ml, 24 hours, 37°C
# [41] = tested on: Escherichia coli 14; assay: Turbidity test in Mueller-Hinton nutrient solution; settings: 100 γ/ml, 24 hours, 37°C
# [42] = tested on: Borrelia species; assay: Turbidity test in Mueller-Hinton nutrient solution; settings: 100 γ/ml, 24 hours, 37°C
# [43] = tested on: Escherichia coli A 261; assay: Turbidity test in Mueller-Hinton nutrient solution; settings: 100 γ/ml, 24 hours, 37°C
# [44] = tested on: Shigella species; assay: Turbidity test in Mueller-Hinton nutrient solution; settings: 100 γ/ml, 24 hours, 37°C
# Experimental: (§4) 100 γ/ml of the compounds according to the invention are dissolved in Mueller-Hinton nutrient solution, with addition of 0.1% of glucose. The nutrient solution contains […] microbes per ml. The mixture is incubated in glass test tubes for 24 hours at 37°C and after this time the degree of turbidity is determined.
# [45] = tested on: Salmonella species; assay: Turbidity test in Mueller-Hinton nutrient solution; settings: 100 γ/ml, 24 hours, 37°C
# Experimental: as §4
smiles,measurement,setting,value
"CC(=O)Nc1n[n+]([O-])c2ccccc2[n+]1[O-] [Example 2, 3-(N-acetylamino)-benzo-1,2,4-triazine-1,4-di-N-oxide]",MIC,[1],< 0.5 µg/mL
same,MIC,[2],< 0.5 µg/mL
same,MIC,[3],< 0.5 µg/mL
same,MIC,[4],< 0.5 µg/mL
same,MIC,[5],1 µg/mL
same,MIC,[6],< 0.5 µg/mL
same,MIC,[7],< 0.5 µg/mL
same,MIC,[8],1 µg/mL
same,MIC,[9],4 µg/mL
same,MIC,[10],8 µg/mL
same,MIC,[11],< 0.125 µg/mL
same,MIC,[12],< 0.125 µg/mL
same,MIC,[13],< 0.125 µg/mL
"CCC(=O)Nc1n[n+]([O-])c2ccccc2[n+]1[O-] [Example 3, 3-(N-propionylamino)-benzo-1,2,4-triazine-1,4-di-N-oxide]",MIC,[1],1 µg/mL
same,MIC,[2],4 µg/mL
same,MIC,[3],1 µg/mL
same,MIC,[4],4 µg/mL
same,MIC,[5],128 µg/mL
same,MIC,[6],4 µg/mL
same,MIC,[7],1 µg/mL
same,MIC,[8],4 µg/mL
same,MIC,[9],128 µg/mL
same,MIC,[10],128 µg/mL
same,MIC,[11],< 0.125 µg/mL
same,MIC,[12],< 0.125 µg/mL
same,MIC,[13],< 0.125 µg/mL
"CC(=O)CC(=O)Nc1n[n+]([O-])c2ccccc2[n+]1[O-] [Example 4, 3-(N-acetoacetylamino)-benzo-1,2,4-triazine-1,4-di-N-oxide]",MIC,[14],32 µg/mL
same,MIC,[1],8 µg/mL
same,MIC,[2],8 µg/mL
same,MIC,[3],8 µg/mL
same,MIC,[4],8 µg/mL
same,MIC,[5],8 µg/mL
same,MIC,[6],128 µg/mL
same,MIC,[7],4 µg/mL
same,MIC,[8],8 µg/mL
same,MIC,[9],128 µg/mL
same,MIC,[10],128 µg/mL
CCCCCCCCCCCCCCCCCC(=O)Nc1n[n+]([O-])c2ccccc2[n+]1[O-] [Example 6],MIC,[14],32 µg/mL
same,MIC,[1],128 µg/mL
same,MIC,[2],128 µg/mL
same,MIC,[3],128 µg/mL
same,MIC,[4],128 µg/mL
same,MIC,[5],128 µg/mL
same,MIC,[6],128 µg/mL
same,MIC,[7],8 µg/mL
same,MIC,[8],128 µg/mL
same,MIC,[9],128 µg/mL
same,MIC,[10],128 µg/mL
"CNC(=O)Nc1n[n+]([O-])c2ccccc2[n+]1[O-] [Example 7, 1'-methyl-3'-[1,4-dioxo-benzo-1,2,4-triazin-3-yl]-urea]",MIC,[1],1 µg/mL
same,MIC,[2],4 µg/mL
same,MIC,[3],1 µg/mL
same,MIC,[4],4 µg/mL
same,MIC,[5],1 µg/mL
same,MIC,[6],8 µg/mL
same,MIC,[7],1 µg/mL
same,MIC,[8],4 µg/mL
same,MIC,[9],128 µg/mL
same,MIC,[10],128 µg/mL
"CNC(=O)Nc1n[n+]([O-])c2ccccc2[n+]1[O-] [Example 12, 1'-[1,4-dioxo-benzo-1,2,4-triazin-3-yl]-3'-methylurea]",turbidity after incubation,[15],remained free of turbidity
same,turbidity after incubation,[16],remained free of turbidity
same,turbidity after incubation,[17],remained free of turbidity
same,turbidity after incubation,[18],remained free of turbidity
same,turbidity after incubation,[19],remained free of turbidity
same,MIC,[14],32 µg/mL
same,turbidity after incubation,[20],remained free of turbidity
same,turbidity after incubation,[21],remained free of turbidity
same,turbidity after incubation,[22],remained free of turbidity
same,turbidity after incubation,[23],remained free of turbidity
same,turbidity after incubation,[24],remained free of turbidity
same,turbidity after incubation,[25],remained free of turbidity
same,turbidity after incubation,[26],remained free of turbidity
same,turbidity after incubation,[27],remained free of turbidity
same,turbidity after incubation,[28],remained free of turbidity
same,turbidity after incubation,[29],remained free of turbidity
same,turbidity after incubation,[30],remained free of turbidity
same,turbidity after incubation,[31],remained free of turbidity
same,turbidity after incubation,[32],remained free of turbidity
same,turbidity after incubation,[33],remained free of turbidity
same,turbidity after incubation,[34],remained free of turbidity
same,turbidity after incubation,[35],remained free of turbidity
same,turbidity after incubation,[36],remained free of turbidity
same,turbidity after incubation,[37],remained free of turbidity
same,turbidity after incubation,[38],remained free of turbidity
same,turbidity after incubation,[39],remained free of turbidity
same,turbidity after incubation,[40],remained free of turbidity
same,turbidity after incubation,[41],remained free of turbidity
same,turbidity after incubation,[42],remained free of turbidity
same,turbidity after incubation,[43],remained free of turbidity
same,turbidity after incubation,[44],remained free of turbidity
same,turbidity after incubation,[45],remained free of turbidity
"O=C(NCCO)Nc1n[n+]([O-])c2ccccc2[n+]1[O-] [Example 14, 1'-[1,4-dioxo-benzo-1,2,4-triazin-3-yl]-3'-[β-hydroxy-ethyl]-urea]",turbidity after incubation,[15],remained free of turbidity
same,turbidity after incubation,[16],remained free of turbidity
same,turbidity after incubation,[17],remained free of turbidity
same,turbidity after incubation,[18],remained free of turbidity
same,turbidity after incubation,[19],remained free of turbidity
same,turbidity after incubation,[20],remained free of turbidity
same,turbidity after incubation,[21],remained free of turbidity
same,turbidity after incubation,[22],remained free of turbidity
same,turbidity after incubation,[23],remained free of turbidity
same,turbidity after incubation,[24],remained free of turbidity
same,turbidity after incubation,[25],remained free of turbidity
same,turbidity after incubation,[26],remained free of turbidity
same,turbidity after incubation,[27],remained free of turbidity
same,turbidity after incubation,[28],remained free of turbidity
same,turbidity after incubation,[29],remained free of turbidity
same,turbidity after incubation,[30],remained free of turbidity
same,turbidity after incubation,[31],remained free of turbidity
same,turbidity after incubation,[32],remained free of turbidity
same,turbidity after incubation,[33],remained free of turbidity
same,turbidity after incubation,[34],remained free of turbidity
same,turbidity after incubation,[35],remained free of turbidity
same,turbidity after incubation,[36],remained free of turbidity
same,turbidity after incubation,[37],remained free of turbidity
same,turbidity after incubation,[38],remained free of turbidity
same,turbidity after incubation,[39],remained free of turbidity
same,turbidity after incubation,[40],remained free of turbidity
same,turbidity after incubation,[41],remained free of turbidity
same,turbidity after incubation,[42],remained free of turbidity
same,turbidity after incubation,[43],remained free of turbidity
same,turbidity after incubation,[44],remained free of turbidity
same,turbidity after incubation,[45],remained free of turbidity
